{"source": "patent US20060160095A1", "about": "“Survivin” (EiRx Therapeutics Limited, priority 2002, published 2006)", "key": {"Neutrophils [1]": {"system": "Neutrophils", "assay": "Measurement of apoptosis by DNA fragmentation (propidium iodide flow cytometry)", "type": "cell-based, human", "details": "neutrophils cultured overnight in the presence of GM-CSF", "description": "Neutrophils are isolated from the blood as described in Example 1 and resuspended at a concentration of 2×10^6/ml. Five hundred microlitres are pipetted into wells of a 24 well plate and incubated in the presence or absence of survival factors.\nAfter this incubation, the neutrophils are carefully resuspended by gentle agitation and the total contents of the well are placed into an eppendorf and centrifuged @2800 rpm for 2 min @ RT in a minifuge. The cell pellet is carefully resuspended in 300 μl of ice cold hypotonic fluorochrome solution (50 μg/ml Propidium Iodide, 0.1% Sodium Citrate and 0.1% Triton X-100) and placed in a fridge for 24 h @ 4° C.\nPrepared samples are analysed with a FacsCalibre flow cytometer (Becton Dickinson) using double discrimination to ensure single cell suspension with Log Forward and Side Scatter Parameter acquisition."}, "Survivin mRNA": {"system": "Survivin mRNA", "assay": "Real-time PCR quantification of survivin mRNA in neutrophils", "type": "cell-based, human", "details": "cytokine added in vitro; A549 standard = 100%", "description": "(§1) Neutrophils are cultured at 1×10^6 per ml in complete culture medium. GM-CSF (50 ng/ml; kind gift of T. Hartung, University of Konstanz, Konstanz, Germany) or G-CSF (25 ng/ml; PeproTech, BioConcept, Allschwil, Switzerland) are added. The duration of GM-CSF or G-CSF stimulation is indicated in each experiment.\nNeutrophils (1×10^7) are washed with PBS and the RNA is isolated according to the RNeasy protocol (Qiagen AG, Basel, Switzerland), which includes DNase digestion. RNA is reverse transcribed with the first strand cDNA synthesis kit (Amersham Pharmacia Biotech) by using random hexanucleotides according to the manufacturer's instructions. Real-time monitoring of PCR amplification of survivin cDNA is performed with a 1/100 dilution of neutrophil cDNA as previously described (Olie et al. (2000) Cancer Research 60, 2805-2809). Relative quantification of survivin expression is performed as described (Olie et al. (2000) Cancer Research 60, 2805-2809) utilizing rRNA as an internal standard.\n(§2) The 20-mer first generation antisense oligonucleotide 4003 targeting the survivin mRNA has been described above. The second generation 2′-O-methoxy-ethoxy (2′-MOE) gapmer version of 4003 (as) and its 3-base mismatch sequence control (ms) are synthesized using an Applied Biosystems 394B automated DNA synthesizer as described (De Mesaeker et al. (1995) Acc. Chem. Res. 28, 366-374). Sequences are as follows: antisense survivin, cscscsasgsCsCsTsTsCsCsAsGsCsTscscststsg; mismatch survivin, cscstsasgsCsCsTsTsCsCsAsGsGsTscscstsasg. Small letters refer to 2′-O-(2-methoxy)-ethyl-modified nucleotides, capital letters to DNA, and “s” refers to phosphorothioate linkages. Cells isolated and cultured as described above are treated with survivin antisense oligonucleotides (as) or survivin mismatch control oligonucleotides (ms) at the indicated concentrations. In the experiments in which GM-CSF (50 ng/ml; kind gift of T. Hartung, University of Konstanz, Konstanz, Germany) or G-CSF (25 ng/ml; PeproTech, BioConcept, Allschwil, Switzerland) are added, the oligonucleotides are given 2 h before addition of cytokines."}, "[2]": {"system": "Primary human neutrophils", "assay": "MTT survival assay of neutrophils cultured with GM-CSF, with or without gliotoxin", "type": "cell-based", "details": "various amounts of GM-CSF, 18 h culture", "description": "Primary human neutrophils are isolated and purified from peripheral blood of normal healthy individuals. Neutrophils are resuspended in serum containing culture medium together with various amounts of GM-CSF at a density of 2×10^6/ml, with 100 μl plated into a 96 well plate and cultured for 18 h at 37° C. After this time 10 μl of MTT (5 mg/ml) is added to the cultures and incubated for a further 4 h at 37° C. before solubilisation of the purple coloured formazan with acidic isopropanol. Optical densities are read at 570 nm using a plate reader.\nPrimary human neutrophils are isolated and purified from peripheral blood of normal healthy individuals. Neutrophils are resuspended in serum containing culture medium containing 5 U/ml of GM-CSF at a concentration of 2×10^6/ml. […] After the indicated time, 10 μl of MTT (5 mg/ml) are added to the cultures and incubated for a further 4 h at 37° C. before solubilisation of the purple coloured formazan with acidic isopropanol. Optical densities are read at 570 nm using a plate reader."}, "Neutrophils [3]": {"system": "Neutrophils", "assay": "Neutrophil apoptosis by oligonucleosomal DNA fragments after 2-MOE oligonucleotides", "type": "cell-based, human", "details": "cytokine alone", "description": "Neutrophil apoptosis is assessed by oligonucleosomal DNA fragmentation (Dibbert et al.(1999) Proc. Natl. Acad. Sci. USA 96, 13330-13335; Hebestreit et al. (1998), J. Exp. Med. 187, 415-425) according to Nicoletti et al. ((1991) J. Immunol. Meth. 139, 271-279). Briefly, cells are resuspended in hypotonic fluorochrome solution containing 50 μg/ml propidium iodide (Sigma Buchs, Switzerland), 0.1% sodium citrate (Sigma) and 0.1% (vol/vol) Triton-X 100 (Sigma), incubated at 4° C. for 10 h, and analyzed by flow cytometry (FACScan, Becton Dickinson, Heidelberg, Germany).\nas §2\nValues are means ±S.E.M. of four independent experiments. *, p<0.05; **, p<0.01; ***, p<0.001."}, "survivin": {"system": "survivin", "assay": "Immunoblotting of survivin protein in neutrophils", "type": "cell-based, human", "details": "cultured for 12 h in the presence of cytokine", "description": "as §1\nNeutrophils (5×10^6) are washed with PBS, lysed with RIPA-buffer (0.5% sodium deoxycholate, 1% Nonidet P-40, 0.1% SDS in PBS) supplemented with a protease inhibitor-cocktail (Sigma) with frequent vortexing on ice for 40 min, including two freeze/thaw cycles using a methanol/dry ice bath. After a 10-min centrifugation to remove insoluble particles, equal amounts of the cell lysates are loaded on NuPage-Gels (Invitrogen Corp., Groningen, Netherlands). Separated proteins are electrotransferred onto polyvinylidene difluoride (PVDF) membranes (Immobilion-P, Millipore, Bedford, Mass.). The filters are incubated overnight with a polyclonal anti-survivin antibody (1/1000; R&D Systems, Abingdon, UK) at 4° C. in TBS/0.1% Tween-20/3% non-fat dry milk. Purified full-length recombinant human survivin (2 μl) is provided by R&D Systems as positive control for anti-survivin immunoblotting. For loading controls, stripped filters are incubated with a monoclonal anti-β-actin antibody (1/10,000; Sigma). Filters are washed in TBS/0.1% Tween-20 for 30 min and incubated with the appropriate HRP-conjugated secondary antibody (Amersham Pharmacia Biotech, Dübendorf, Switzerland) in TBS/0.1% Tween-20/5% non-fat dry milk for 1 h. Filters are developed by an ECL-technique (ECL-Kit, Amersham Pharmacia Biotech) according to the manufacturer's instructions.\nas §2"}}, "data": [{"substance": "Granulocyte macrophage colony-stimulating factor [GM-CSF]", "values": [{"measurement": "apoptosis by DNA fragmentation (G0/G1 and sub-G1 peaks)", "setting": "Neutrophils [1]", "value": "few cells in the sub-G1 peak"}, {"measurement": "survivin mRNA in normal control neutrophils after cytokine addition", "setting": "Survivin mRNA", "value": "increase in survivin mRNA"}, {"measurement": "neutrophil survival (MTT, optical density at 570 nm)", "setting": "[2]", "value": "direct correlation between survival and concentrations of GM-CSF"}, {"measurement": "DNA-fragmentation of neutrophils with cytokine", "setting": "Neutrophils [3]", "value": "prevent DNA-fragmentation"}, {"measurement": "Levels of survivin (immunoblot) in normal control neutrophils", "setting": "survivin", "value": "increased"}]}]}
